Consider 18 molecules from patent US10172858B2, “Combination pharmaceutical compositions and uses thereof” (Intellikine LLC, priority 2011, dated 2019).

Like-named read-outs stand apart in the source and are kept apart here.

For one assay, the target named is PI3K β (Homo sapiens (Human), UniProt P42338). The assay can be described thus: PI3K β kinase assay. It counts as biochemical. To be noted: Table 2.
For another assay, the target named is PI3K α (Homo sapiens (Human), UniProt P42336). The assay can be described thus: PI3K α kinase assay. It counts as biochemical.
A further assay deals with PI3K δ (Homo sapiens (Human), UniProt O00329). The assay can be described thus: PI3K δ kinase assay. It counts as biochemical.
The next assay deals with PI3K γ (Homo sapiens (Human), UniProt P48736). In words: PI3K γ kinase assay. Type of assay: biochemical. The conditions noted are these: Table 2.
Another assay has as its target mTORC (Homo sapiens (Human), UniProt P42345). In words: mTORC in vitro IC50 (Table 2). Type of assay: biochemical.
In assay [1] the test system is mTORC1-dependent NRDG1 phosphorylation. In words: Western blot of NRDG1 phosphorylation (FIG. 4B). It counts as cell-based. (A western blot detects proteins with antibodies after separation by electrophoresis.)
A further assay has as its system pS6, cleaved PARP. In words: Western blot of pS6 and cleaved PARP (FIG. 6). It counts as cell-based. The conditions noted are these: paclitaxel alone.
For assay [2], the system named is Endometrial cancer cells containing mutations in PTEN and FGFR2. The assay can be described thus: Combination therapy in a tumor mouse model, tumor volume. It counts as in vivo, mice. The conditions noted are these: Paclitaxel alone 20 mg/kg Q1W intravenous.
Source text: Endometrial cancer cells containing mutations in PTEN and FGFR2 were implanted into mice. Mice having tumor volumes of approximately 150 mm^3 were grouped by treatment schedule, with the start of treatment designated as day 0. Control mice received no treatment.
In a further example, mice were implanted with endometrial cancer cells as above. Mice having tumor volumes of approximately 150 mm^3 were grouped by treatment schedule, with the start of treatment designated as day 0. Control mice received no treatment.
Assay [3] deals with HEC59 (paclitaxel resistant cell line) cells. In words: Growth of HEC59 cells (FIG. 9A). It counts as cell-based.
The subject of the next assay is PC3. The assay can be described thus: PC3 tumor cell line proliferation assay. Type of assay: cell-based. The conditions noted are these: Homo sapiens, PC-3; Table 2, in vitro IC50.

Chain of PI3K δ (O00329 whole entry, species assumed): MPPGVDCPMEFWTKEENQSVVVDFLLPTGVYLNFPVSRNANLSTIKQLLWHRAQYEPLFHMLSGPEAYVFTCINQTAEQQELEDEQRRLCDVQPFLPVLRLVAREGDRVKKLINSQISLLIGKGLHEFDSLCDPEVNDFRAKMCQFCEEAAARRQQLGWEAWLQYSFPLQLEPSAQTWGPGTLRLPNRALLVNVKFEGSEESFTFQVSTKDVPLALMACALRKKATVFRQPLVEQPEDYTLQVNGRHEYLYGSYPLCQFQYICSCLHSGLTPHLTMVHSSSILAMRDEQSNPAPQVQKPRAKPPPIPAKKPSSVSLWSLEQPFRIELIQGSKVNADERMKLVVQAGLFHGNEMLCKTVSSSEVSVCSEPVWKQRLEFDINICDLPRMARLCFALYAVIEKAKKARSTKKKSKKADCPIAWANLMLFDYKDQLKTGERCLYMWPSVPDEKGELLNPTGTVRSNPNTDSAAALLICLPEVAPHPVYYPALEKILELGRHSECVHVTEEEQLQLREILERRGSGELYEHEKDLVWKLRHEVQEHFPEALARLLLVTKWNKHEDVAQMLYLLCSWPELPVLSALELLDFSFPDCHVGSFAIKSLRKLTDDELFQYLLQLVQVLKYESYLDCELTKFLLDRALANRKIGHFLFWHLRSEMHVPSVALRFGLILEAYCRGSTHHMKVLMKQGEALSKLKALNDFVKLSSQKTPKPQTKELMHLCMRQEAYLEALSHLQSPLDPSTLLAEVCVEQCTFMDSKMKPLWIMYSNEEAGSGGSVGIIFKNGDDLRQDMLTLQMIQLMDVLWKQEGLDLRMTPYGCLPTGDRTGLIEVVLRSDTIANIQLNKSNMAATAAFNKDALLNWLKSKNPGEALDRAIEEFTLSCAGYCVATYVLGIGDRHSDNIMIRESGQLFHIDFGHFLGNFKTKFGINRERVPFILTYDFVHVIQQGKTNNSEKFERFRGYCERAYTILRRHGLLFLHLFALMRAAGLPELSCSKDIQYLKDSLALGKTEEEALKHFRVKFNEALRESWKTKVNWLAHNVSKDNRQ
Chain of PI3K δ (P27986 whole entry partner, species assumed): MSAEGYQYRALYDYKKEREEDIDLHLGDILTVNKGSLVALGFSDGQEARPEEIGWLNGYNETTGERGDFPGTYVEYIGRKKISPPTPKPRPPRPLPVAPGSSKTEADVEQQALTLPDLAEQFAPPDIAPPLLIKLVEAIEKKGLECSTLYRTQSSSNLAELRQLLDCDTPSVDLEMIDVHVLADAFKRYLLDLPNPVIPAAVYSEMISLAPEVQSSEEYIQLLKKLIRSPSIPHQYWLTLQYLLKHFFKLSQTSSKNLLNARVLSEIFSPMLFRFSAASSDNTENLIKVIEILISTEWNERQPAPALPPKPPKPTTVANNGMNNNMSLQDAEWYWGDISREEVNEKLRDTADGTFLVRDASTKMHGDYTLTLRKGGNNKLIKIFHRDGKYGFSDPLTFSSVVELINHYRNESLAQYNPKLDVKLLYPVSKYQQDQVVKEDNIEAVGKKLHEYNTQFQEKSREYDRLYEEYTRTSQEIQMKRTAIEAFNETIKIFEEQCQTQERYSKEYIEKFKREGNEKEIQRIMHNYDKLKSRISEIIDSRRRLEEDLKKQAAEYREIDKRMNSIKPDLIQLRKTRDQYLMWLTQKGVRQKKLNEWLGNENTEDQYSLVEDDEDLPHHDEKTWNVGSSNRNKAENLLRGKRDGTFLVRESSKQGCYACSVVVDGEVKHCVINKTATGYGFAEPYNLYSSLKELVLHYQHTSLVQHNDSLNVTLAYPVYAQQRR
Chain of PI3K α (P42336 whole entry): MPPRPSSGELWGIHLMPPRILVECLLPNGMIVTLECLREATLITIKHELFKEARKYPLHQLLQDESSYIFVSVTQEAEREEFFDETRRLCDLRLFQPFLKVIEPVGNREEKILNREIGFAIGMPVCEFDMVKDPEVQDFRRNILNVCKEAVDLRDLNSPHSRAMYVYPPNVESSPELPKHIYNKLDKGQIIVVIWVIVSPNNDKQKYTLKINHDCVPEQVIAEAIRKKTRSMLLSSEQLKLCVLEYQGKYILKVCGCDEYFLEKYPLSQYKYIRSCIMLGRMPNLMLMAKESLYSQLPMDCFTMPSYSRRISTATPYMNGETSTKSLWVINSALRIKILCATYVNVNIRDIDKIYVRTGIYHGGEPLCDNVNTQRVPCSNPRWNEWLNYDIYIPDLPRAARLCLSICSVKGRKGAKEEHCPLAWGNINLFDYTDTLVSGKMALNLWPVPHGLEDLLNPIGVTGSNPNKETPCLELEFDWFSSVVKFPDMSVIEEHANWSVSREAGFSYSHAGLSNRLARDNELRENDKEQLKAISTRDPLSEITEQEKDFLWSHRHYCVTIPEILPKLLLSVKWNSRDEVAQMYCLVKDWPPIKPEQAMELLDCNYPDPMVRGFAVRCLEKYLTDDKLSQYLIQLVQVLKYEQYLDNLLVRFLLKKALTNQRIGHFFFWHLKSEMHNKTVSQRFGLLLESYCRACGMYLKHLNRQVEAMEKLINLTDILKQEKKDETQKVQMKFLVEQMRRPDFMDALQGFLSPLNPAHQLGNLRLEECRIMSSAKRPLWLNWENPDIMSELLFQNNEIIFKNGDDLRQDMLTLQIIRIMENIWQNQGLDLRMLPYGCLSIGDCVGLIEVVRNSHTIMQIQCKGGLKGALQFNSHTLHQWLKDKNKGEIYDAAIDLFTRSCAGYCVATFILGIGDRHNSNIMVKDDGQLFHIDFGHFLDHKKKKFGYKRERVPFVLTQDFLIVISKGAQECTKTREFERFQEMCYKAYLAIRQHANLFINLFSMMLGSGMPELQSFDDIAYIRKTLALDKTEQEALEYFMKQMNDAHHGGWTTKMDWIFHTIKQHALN
Chain of PI3K α (P27986 whole entry partner): as the sequence (P27986 whole entry partner, species assumed) above
Chain of PI3K γ (P48736 whole entry, species assumed): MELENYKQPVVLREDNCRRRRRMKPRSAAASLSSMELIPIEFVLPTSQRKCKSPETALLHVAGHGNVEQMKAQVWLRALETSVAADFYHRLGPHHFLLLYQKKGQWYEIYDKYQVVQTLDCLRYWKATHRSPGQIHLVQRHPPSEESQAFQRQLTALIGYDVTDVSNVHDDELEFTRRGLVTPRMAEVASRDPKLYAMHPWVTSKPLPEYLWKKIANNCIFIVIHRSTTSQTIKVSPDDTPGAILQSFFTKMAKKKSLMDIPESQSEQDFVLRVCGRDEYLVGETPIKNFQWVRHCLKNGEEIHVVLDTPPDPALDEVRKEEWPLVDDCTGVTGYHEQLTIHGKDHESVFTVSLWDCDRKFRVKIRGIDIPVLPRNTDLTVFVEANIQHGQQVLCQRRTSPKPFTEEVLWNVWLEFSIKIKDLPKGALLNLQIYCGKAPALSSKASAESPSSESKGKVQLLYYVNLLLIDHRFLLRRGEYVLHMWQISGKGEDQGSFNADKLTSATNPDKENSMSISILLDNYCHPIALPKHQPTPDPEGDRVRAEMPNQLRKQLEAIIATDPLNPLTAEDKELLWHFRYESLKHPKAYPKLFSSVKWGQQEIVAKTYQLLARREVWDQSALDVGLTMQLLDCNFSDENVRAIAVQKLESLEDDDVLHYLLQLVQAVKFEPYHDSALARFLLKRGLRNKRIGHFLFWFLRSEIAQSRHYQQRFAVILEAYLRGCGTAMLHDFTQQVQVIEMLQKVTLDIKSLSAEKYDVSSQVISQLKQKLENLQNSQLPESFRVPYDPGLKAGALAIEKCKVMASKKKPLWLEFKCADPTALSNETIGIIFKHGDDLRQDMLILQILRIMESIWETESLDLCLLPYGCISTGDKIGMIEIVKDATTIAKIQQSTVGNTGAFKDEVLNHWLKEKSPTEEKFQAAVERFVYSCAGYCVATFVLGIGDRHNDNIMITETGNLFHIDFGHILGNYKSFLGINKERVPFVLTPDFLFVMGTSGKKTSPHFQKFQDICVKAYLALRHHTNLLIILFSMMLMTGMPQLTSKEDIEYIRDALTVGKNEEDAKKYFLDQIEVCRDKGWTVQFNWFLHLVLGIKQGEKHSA
Chain of PI3K β (P42338 whole entry, species assumed): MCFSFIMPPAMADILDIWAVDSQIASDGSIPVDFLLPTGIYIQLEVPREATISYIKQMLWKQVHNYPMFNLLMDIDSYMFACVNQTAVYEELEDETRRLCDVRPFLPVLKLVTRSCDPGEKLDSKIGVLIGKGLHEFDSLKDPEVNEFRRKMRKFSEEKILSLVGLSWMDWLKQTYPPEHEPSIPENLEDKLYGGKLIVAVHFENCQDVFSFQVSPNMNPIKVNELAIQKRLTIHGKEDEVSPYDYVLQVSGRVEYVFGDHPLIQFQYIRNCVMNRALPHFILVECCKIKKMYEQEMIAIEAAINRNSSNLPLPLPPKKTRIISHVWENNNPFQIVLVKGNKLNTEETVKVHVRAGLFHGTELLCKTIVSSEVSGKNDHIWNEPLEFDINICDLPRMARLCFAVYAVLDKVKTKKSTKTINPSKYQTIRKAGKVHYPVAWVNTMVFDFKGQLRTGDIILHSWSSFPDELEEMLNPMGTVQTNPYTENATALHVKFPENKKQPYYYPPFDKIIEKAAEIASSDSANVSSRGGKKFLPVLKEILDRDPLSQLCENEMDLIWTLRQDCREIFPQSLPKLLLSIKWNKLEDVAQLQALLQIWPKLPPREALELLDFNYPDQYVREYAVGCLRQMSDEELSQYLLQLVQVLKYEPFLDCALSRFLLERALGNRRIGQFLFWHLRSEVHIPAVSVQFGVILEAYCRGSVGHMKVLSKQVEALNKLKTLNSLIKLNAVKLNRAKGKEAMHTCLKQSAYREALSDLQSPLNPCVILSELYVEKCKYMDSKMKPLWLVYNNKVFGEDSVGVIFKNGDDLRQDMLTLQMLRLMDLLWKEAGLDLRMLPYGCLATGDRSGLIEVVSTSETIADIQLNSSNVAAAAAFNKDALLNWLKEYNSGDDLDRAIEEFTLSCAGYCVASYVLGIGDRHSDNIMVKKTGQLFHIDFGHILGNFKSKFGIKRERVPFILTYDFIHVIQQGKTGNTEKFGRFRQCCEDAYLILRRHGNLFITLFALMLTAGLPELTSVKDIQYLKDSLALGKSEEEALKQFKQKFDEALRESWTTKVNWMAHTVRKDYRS
Chain of PI3K β (P27986 whole entry partner, species assumed): as the sequence (P27986 whole entry partner, species assumed) above
Procedure for PC3: The assay is performed in a 96 well microtiter plate using Alamar Blue reduction. […] A compound disclosed herein is diluted in Tumor Cell Media and added in a 10 ul volume. […] A volume of 10 uL of Alamar Blue reagent is added to each well and plates are incubated for 3 hours at 37 C and 5% CO2. Alamar Blue fluoresce is read at 560Ex/590Em, and IC50 values are calculated using GraphPad Prism 5.

A word on the IC50: it is the point on the concentration scale where inhibition reaches its midpoint. As for `CC(C)n1nc(-c2cc3cccc(Cl)c3[nH]2)c2c(N)ncnc21` [Compound 50], the IC50 at PI3K β was over 500 nM; against PI3K α (Table 2), over 500 nM; against PI3K δ (Table 2) it was under 500 nM; at PI3K γ, under 500 nM; against mTORC, under 50 nM.

Regarding `CN1CCN(C2CC(n3nc(-c4cc5cc(O)ccc5[nH]4)c4c(N)ncnc43)C2)CC1` (centres unmarked) [Compound 52], the IC50 against PI3K β is over 500 nM; at PI3K α, over 500 nM; at PI3K δ (Table 2), under 500 nM; on PI3K γ, over 500 nM; at mTORC, under 500 nM.

Regarding `Nc1ncnc2c1c(-c1cc3cc(O)ccc3[nH]1)nn2C1CC(N2CCOCC2)C1` (centres unmarked) [Compound 49], the IC50 against PI3K β was over 500 nM; against PI3K α it was over 500 nM; against PI3K δ (Table 2), under 500 nM; on PI3K γ, under 500 nM; on mTORC, under 10 nM.

`CC(=O)N1CCC(n2nc(-c3cc4ccc(O)cc4[nH]3)c3c(N)ncnc32)CC1` [Compound 65]: the half-inhibitory concentration (IC50) against PI3K β was over 500 nM; against PI3K α (Table 2), under 50 nM; at PI3K δ (Table 2), under 25 nM; against PI3K γ, under 25 nM; on mTORC, under 10 nM.

As to `CC(C)N1CCC(n2nc(-c3cc4cccc(O)c4[nH]3)c3c(N)ncnc32)CC1` [Compound 64], the IC50 is over 500 nM on PI3K β; over 500 nM on PI3K α (Table 2); under 500 nM at PI3K δ (Table 2); under 500 nM at PI3K γ; under 25 nM against mTORC.

In the case of `Nc1ncnc2c1c(-c1cc3c(Cl)cccc3[nH]1)nn2C1CCOCC1` [Compound 48], the 50% inhibitory concentration (IC50) is over 500 nM against PI3K β; over 500 nM against PI3K α (Table 2); over 500 nM against PI3K δ (Table 2); over 500 nM at PI3K γ; under 50 nM on mTORC.

On to `Nc1ncnc2c1c(-c1cc3cc(O)cc(Cl)c3[nH]1)nn2C1CCOCC1` [Compound 68], for which the IC50 was over 500 nM against PI3K β; under 500 nM on PI3K α (Table 2); under 25 nM at PI3K δ (Table 2); under 50 nM on PI3K γ; under 5 nM on mTORC.

`Nc1ncnc2c1c(-c1cc3cccc(Cl)c3[nH]1)nn2C1CCOCC1` [Compound 51]: the half-maximal inhibitory concentration (IC50) against PI3K β is over 500 nM; against PI3K α (Table 2), over 500 nM; against PI3K δ (Table 2) it was under 500 nM; against PI3K γ, under 500 nM; against mTORC, under 50 nM.

Regarding `COc1ccc(Cl)c2cc(-c3nn(C4CCOCC4)c4ncnc(N)c34)[nH]c12` [Compound 61], the half-inhibitory concentration (IC50) against PI3K β was over 500 nM; on PI3K α (Table 2), over 500 nM; at PI3K δ (Table 2), over 500 nM; on PI3K γ it was over 500 nM; against mTORC, under 25 nM.

With `CO[C@H]1C[C@@H]2CC[C@@H](C)[C@@](O)(O2)C(=O)C(=O)N2CCCC[C@H]2C(=O)O[C@H]([C@H](C)C[C@@H]2CC[C@@H](O)[C@H](OC)C2)CC(=O)[C@H](C)/C=C(\C)[C@@H](O)[C@@H](OC)C(=O)[C@H](C)C[C@H](C)/C=C/C=C/C=C/1C` [rapamycin], the “sensitivity of mTORC1-dependent NRDG1 phosphorylation” value in assay [1] is on record as “not”.

For the molecule `COc1cccc2cc(-c3nn(C4CCN(C(=O)C5CC5)CC4)c4ncnc(N)c34)[nH]c12` [Compound 66], the half-inhibitory concentration (IC50) against PI3K β, on PI3K α (Table 2), against PI3K δ (Table 2), against PI3K γ and against mTORC was over 500 nM throughout.

With `CC(=O)O[C@H]1C(=O)[C@@]2(C)[C@H]([C@H](OC(=O)c3ccccc3)[C@]3(O)C[C@H](OC(=O)[C@H](O)[C@@H](NC(=O)c4ccccc4)c4ccccc4)C(C)=C1C3(C)C)[C@]1(OC(C)=O)CO[C@@H]1C[C@@H]2O` [Paclitaxel], in the assay with pS6, cleaved PARP, the pS6 level result is “induction of pS6”. Besides, the “increase in average tumor volume by day 22” value in assay [2] is on record as 17%. Further, the “average tumor volume by day 22” value in [2] (from about 150 mm^3 at day 0) is listed as “about 175 mm^3”. Also, in assay [3], the “inhibition of the growth of HEC59 cells” value was “partial inhibition”.

`Nc1ncnc2c1c(-c1cc3cccc(O)c3[nH]1)nn2C1CCOCC1` [Compound 62]: the IC50 on PI3K β was over 500 nM; against PI3K α (Table 2), over 500 nM; against PI3K δ (Table 2), under 100 nM; against PI3K γ, over 500 nM; against mTORC, under 5 nM.

Consider `Nc1ncnc2c1c(-c1cc3cccc(O)c3[nH]1)nn2C1CCN(C(=O)C2CC2)CC1` [Compound 41], for which the 50% inhibitory concentration (IC50) in the assay with PC3 was over 500 nM; at PI3K β, over 500 nM; at PI3K α (Table 2) it was over 500 nM; on PI3K δ (Table 2) it was over 500 nM; on PI3K γ it was under 50 nM; at mTORC, under 10 nM.

In the case of `COc1cc(Cl)c2[nH]c(-c3nn(C4CCOCC4)c4ncnc(N)c34)cc2c1` [Compound 67], the half-inhibitory concentration (IC50) against PI3K β, against PI3K α (Table 2), against PI3K δ (Table 2), at PI3K γ and against mTORC was over 500 nM each time.

Regarding `CC(C)N1CCC(n2nc(-c3cc4c(Cl)ccc(O)c4[nH]3)c3c(N)ncnc32)CC1` [Compound 71], the half-maximal inhibitory concentration (IC50) against PI3K β is over 500 nM; against PI3K α (Table 2), over 500 nM; at PI3K δ, over 500 nM; against PI3K γ it was over 500 nM; against mTORC, under 100 nM.

As to `COc1cccc2cc(-c3nn(C4CCOCC4)c4ncnc(N)c34)[nH]c12` [Compound 63], the IC50 is over 500 nM against PI3K β; under 500 nM on PI3K α; under 25 nM on PI3K δ (Table 2); under 25 nM at PI3K γ; under 5 nM against mTORC.

In the case of `CC(=O)N1CCC(n2nc(-c3cc4c(Cl)ccc(O)c4[nH]3)c3c(N)ncnc32)CC1` [Compound 69], the IC50 was over 500 nM against PI3K β; over 500 nM against PI3K α (Table 2); under 500 nM against PI3K δ; over 500 nM against PI3K γ; under 5 nM on mTORC.
